Measured values published in PubChem BioAssay AID1963447 (Molecular Pharmacology Branch, DTP, NCI, 2024).
Blank lines part the entries; values can stand above or below the molecule they belong to.

Tested on: 885512-296-R-J2-PDC complex spheroid growth, % test/control
Test: Anticancer human tumor 885512-296-R-J2-PDC patient-derived breast carcinoma cell line growth inhibition [Asc]
Settings: for IC50: curve of first compound; for viability, T/C: stronger effect = lower value
Method in brief: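 Complex solid-tumor spheroids incorporating human endothelial and mesenchymal stem cells received single agents or combinations over half-log dilution ranges anchored to clinical Cmax.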
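Note: spheroids exposed to compounds for seven days.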
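Throughout, for viability, T/C: 100% = DMSO vehicle control wells.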

IC50 (second compound 0.1 µM): 2460 nM
IC50 (second compound 0.316 µM): 1820 nM
IC50 (second compound 1 µM): 2370 nM
IC50 (second compound 3.16 µM): > 3000 nM
IC50 (second compound 10 µM): > 3000 nM
Compound: CCN1C(C(=O)NC23CCC(C(=O)O)(CC2)CC3)C(c2cccc(Cl)c2F)C2(C(=O)Nc3cc(Cl)ccc32)C12CCCCC2 (stereo not given) + Cc1c(S(C)(=O)=O)c(-c2cc(F)cc(N3CCN(c4ccc(NS(=O)(=O)c5ccc(NC(CCN6CCC(C(=O)OCCCP(=O)(O)O)CC6)CSc6ccccc6)c(S(=O)(=O)C(F)(F)F)c5)cc4)CC3)c2)c(-c2ccc(Cl)cc2)n1C(C)C
viability, T/C (second compound 0.1 µM, first compound 0.00949 µM): 90.8%
viability, T/C (second compound 0.1 µM, first compound 0.03 µM): 96.3%
viability, T/C (second compound 0.1 µM, first compound 0.0949 µM): 99.4%
viability, T/C (second compound 0.1 µM, first compound 0.3 µM): 72.8%
viability, T/C (second compound 0.1 µM, first compound 0.949 µM): 73.8%
viability, T/C (second compound 0.1 µM, first compound 3 µM): 45.1%
viability, T/C (second compound 0.316 µM, first compound 0.00949 µM): 86.7%
viability, T/C (second compound 0.316 µM, first compound 0.03 µM): 101%
viability, T/C (second compound 0.316 µM, first compound 0.0949 µM): 99.6%
viability, T/C (second compound 0.316 µM, first compound 0.3 µM): 80.8%
viability, T/C (second compound 0.316 µM, first compound 0.949 µM): 64.4%
viability, T/C (second compound 0.316 µM, first compound 3 µM): 39.8%
viability, T/C (second compound 1 µM, first compound 0.00949 µM): 103%
viability, T/C (second compound 1 µM, first compound 0.03 µM): 79.3%
viability, T/C (second compound 1 µM, first compound 0.0949 µM): 85%
viability, T/C (second compound 1 µM, first compound 0.3 µM): 71.9%
viability, T/C (second compound 1 µM, first compound 0.949 µM): 67.1%
viability, T/C (second compound 1 µM, first compound 3 µM): 42%
viability, T/C (second compound 3.16 µM, first compound 0.00949 µM): 109%
viability, T/C (second compound 3.16 µM, first compound 0.03 µM): 100%
viability, T/C (second compound 3.16 µM, first compound 0.0949 µM): 98.6%
viability, T/C (second compound 3.16 µM, first compound 0.3 µM): 95.4%
viability, T/C (second compound 3.16 µM, first compound 0.949 µM): 78%
viability, T/C (second compound 3.16 µM, first compound 3 µM): 52.4%
viability, T/C (second compound 10 µM, first compound 0.00949 µM): 129%
viability, T/C (second compound 10 µM, first compound 0.03 µM): 101%
viability, T/C (second compound 10 µM, first compound 0.0949 µM): 119%
viability, T/C (second compound 10 µM, first compound 0.3 µM): 124%
viability, T/C (second compound 10 µM, first compound 0.949 µM): 112%
viability, T/C (second compound 10 µM, first compound 3 µM): 79.6%

IC50 (second compound 0.1 µM): > 1000 nM
IC50 (second compound 0.316 µM): > 1000 nM
IC50 (second compound 1 µM): > 1000 nM
IC50 (second compound 3.16 µM): > 1000 nM
IC50 (second compound 10 µM): > 1000 nM
Compound: CNC(C)C(=O)NC1CN(S(=O)(=O)c2cccc(S(=O)(=O)N3CCC4CCC(C(=O)NC(c5ccccc5)c5ccccc5)N4C(=O)C(NC(=O)C(C)NC)C3)c2)CCC2CCC(C(=O)NC(c3ccccc3)c3ccccc3)N2C1=O (stereo not given) + Cc1c(S(C)(=O)=O)c(-c2cc(F)cc(N3CCN(c4ccc(NS(=O)(=O)c5ccc(NC(CCN6CCC(C(=O)OCCCP(=O)(O)O)CC6)CSc6ccccc6)c(S(=O)(=O)C(F)(F)F)c5)cc4)CC3)c2)c(-c2ccc(Cl)cc2)n1C(C)C
viability, T/C (second compound 0.1 µM, first compound 0.00316 µM): 78.5%
viability, T/C (second compound 0.1 µM, first compound 0.01 µM): 89.6%
viability, T/C (second compound 0.1 µM, first compound 0.0316 µM): 89.2%
viability, T/C (second compound 0.1 µM, first compound 0.1 µM): 101%
viability, T/C (second compound 0.1 µM, first compound 0.316 µM): 116%
viability, T/C (second compound 0.1 µM, first compound 1 µM): 88.8%
viability, T/C (second compound 0.316 µM, first compound 0.00316 µM): 80.1%
viability, T/C (second compound 0.316 µM, first compound 0.01 µM): 92.6%
viability, T/C (second compound 0.316 µM, first compound 0.0316 µM): 107%
viability, T/C (second compound 0.316 µM, first compound 0.1 µM): 93.5%
viability, T/C (second compound 0.316 µM, first compound 0.316 µM): 106%
viability, T/C (second compound 0.316 µM, first compound 1 µM): 109%
viability, T/C (second compound 1 µM, first compound 0.00316 µM): 90%
viability, T/C (second compound 1 µM, first compound 0.01 µM): 100%
viability, T/C (second compound 1 µM, first compound 0.0316 µM): 112%
viability, T/C (second compound 1 µM, first compound 0.1 µM): 102%
viability, T/C (second compound 1 µM, first compound 0.316 µM): 107%
viability, T/C (second compound 1 µM, first compound 1 µM): 109%
viability, T/C (second compound 3.16 µM, first compound 0.00316 µM): 94.7%
viability, T/C (second compound 3.16 µM, first compound 0.01 µM): 92.7%
viability, T/C (second compound 3.16 µM, first compound 0.0316 µM): 99.2%
viability, T/C (second compound 3.16 µM, first compound 0.1 µM): 102%
viability, T/C (second compound 3.16 µM, first compound 0.316 µM): 112%
viability, T/C (second compound 3.16 µM, first compound 1 µM): 95.2%
viability, T/C (second compound 10 µM, first compound 0.00316 µM): 112%
viability, T/C (second compound 10 µM, first compound 0.01 µM): 103%
viability, T/C (second compound 10 µM, first compound 0.0316 µM): 91.5%
viability, T/C (second compound 10 µM, first compound 0.1 µM): 98%
viability, T/C (second compound 10 µM, first compound 0.316 µM): 100%
viability, T/C (second compound 10 µM, first compound 1 µM): 105%
